# Data: ChEMBL document CHEMBL1201862, “PubChem BioAssay data set” (2004)
# The source made the active and inactive calls.
# Tests used:
# [1] = target: Genome polyprotein (dengue virus type 2, UniProt P29990); assay: flavivirus cap methylation enzyme inhibition – biochemical, confirmation dose response, primary screen (AID 588689); type: functional
# [2] = target: FAD-linked sulfhydryl oxidase ALR (Homo sapiens, UniProt P55789); assay: ALR-catalysed DTT oxidation blockers – biochemical, H2O2 detection, luminescence, cherry-pick, dose response (AID 493248)
# Chain of FAD-linked sulfhydryl oxidase ALR (P55789 whole entry): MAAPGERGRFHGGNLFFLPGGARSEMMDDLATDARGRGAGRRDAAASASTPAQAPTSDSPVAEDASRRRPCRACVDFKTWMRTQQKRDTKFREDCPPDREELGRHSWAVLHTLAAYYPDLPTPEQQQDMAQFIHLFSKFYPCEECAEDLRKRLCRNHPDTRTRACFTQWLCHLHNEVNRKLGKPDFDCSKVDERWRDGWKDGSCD
# [3] = target: T1, Polyadenylate-binding protein 1 (Homo sapiens, UniProt P11940); assay: MLLE binding blockers, Cy5 peptide tracer – biochemical, fluorescence polarization, Cy5-PAM2 peptide, secondary, miRNA deadenylation inhibitor project, dose response (AID 602260); type: functional; details: read-out: IC50_Mean
# T1 sequence (P11940 whole entry, the tested form may be a part): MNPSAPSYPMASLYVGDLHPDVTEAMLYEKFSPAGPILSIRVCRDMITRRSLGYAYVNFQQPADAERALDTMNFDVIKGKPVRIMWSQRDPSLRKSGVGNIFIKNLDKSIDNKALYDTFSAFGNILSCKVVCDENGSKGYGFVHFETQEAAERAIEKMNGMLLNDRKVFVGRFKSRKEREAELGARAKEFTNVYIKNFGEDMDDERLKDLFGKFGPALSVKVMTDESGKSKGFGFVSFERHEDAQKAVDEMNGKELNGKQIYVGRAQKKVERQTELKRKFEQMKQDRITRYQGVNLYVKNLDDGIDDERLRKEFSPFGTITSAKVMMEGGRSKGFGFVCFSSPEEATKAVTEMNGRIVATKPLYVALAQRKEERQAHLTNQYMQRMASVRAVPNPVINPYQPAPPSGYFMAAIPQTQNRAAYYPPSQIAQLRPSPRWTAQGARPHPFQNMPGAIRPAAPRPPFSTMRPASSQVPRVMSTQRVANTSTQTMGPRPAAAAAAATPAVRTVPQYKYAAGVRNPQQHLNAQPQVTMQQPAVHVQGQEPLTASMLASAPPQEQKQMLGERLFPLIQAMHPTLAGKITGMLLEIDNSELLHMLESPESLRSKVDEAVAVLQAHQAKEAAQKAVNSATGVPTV
# [4] = target: T1, Polyadenylate-binding protein 1; assay: MLLE domain peptide-binding blockers, IC50 – biochemical, fluorescence polarization, FITC-PAM2 peptide, dose response (AID 602259); type: functional; details: read-out: IC50_Mean
# [5] = test system: BJ; assay: BJ-TERT fibroblast viability loss – cell-based, RAS-independent, luminescence, dose response (AID 1933); type: functional; details: Homo sapiens
# [6] = test system: BJ; assay: BJ-TERT-LT-ST fibroblast viability loss – cell-based, RAS-independent, luminescence, dose response (AID 1935); type: functional; details: Homo sapiens;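 also: BJ fibroblasts immortalized with TERT plus LT and ST oncogenes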
# [7] = DRD fibroblast viability loss – cell-based, non-viral oncogenic, luminescence, dose response (AID 1934); type: functional; details: Homo sapiens
# [8] = test system: BJ; assay: cells; type: functional, cell-based; details: Homo sapiens
# [9] = Trypanosoma cruzi growth suppression in host cells – NIH3T3 host cells, beta-gal luminescence, confirmation (AID 2044); type: functional, cell-based;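 also: intracellular parasites grown in NIH/3T3 mouse fibroblasts as host cells; luminescent beta-galactosidase reporter signal from transgenic T. cruzi replicating inside host cells; inhibitors lower the luminescence signal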
# [10] = NIH3T3 cell viability loss – ATP luminescence, mouse fibroblasts, counter-screen, dose response (AID 2010); type: functional, cell-based;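 also: cells exposed to compound for about 90 hours before reading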
# [11] = target: T2, Replicative DNA helicase DnaB (Mycobacterium tuberculosis, UniProt P9WMR3); assay: DnaB intein splicing inhibitors, dose response, biochemical, cell-free fluorescence (AID 449749); type: functional
# T2 sequence (P9WMR3 whole entry): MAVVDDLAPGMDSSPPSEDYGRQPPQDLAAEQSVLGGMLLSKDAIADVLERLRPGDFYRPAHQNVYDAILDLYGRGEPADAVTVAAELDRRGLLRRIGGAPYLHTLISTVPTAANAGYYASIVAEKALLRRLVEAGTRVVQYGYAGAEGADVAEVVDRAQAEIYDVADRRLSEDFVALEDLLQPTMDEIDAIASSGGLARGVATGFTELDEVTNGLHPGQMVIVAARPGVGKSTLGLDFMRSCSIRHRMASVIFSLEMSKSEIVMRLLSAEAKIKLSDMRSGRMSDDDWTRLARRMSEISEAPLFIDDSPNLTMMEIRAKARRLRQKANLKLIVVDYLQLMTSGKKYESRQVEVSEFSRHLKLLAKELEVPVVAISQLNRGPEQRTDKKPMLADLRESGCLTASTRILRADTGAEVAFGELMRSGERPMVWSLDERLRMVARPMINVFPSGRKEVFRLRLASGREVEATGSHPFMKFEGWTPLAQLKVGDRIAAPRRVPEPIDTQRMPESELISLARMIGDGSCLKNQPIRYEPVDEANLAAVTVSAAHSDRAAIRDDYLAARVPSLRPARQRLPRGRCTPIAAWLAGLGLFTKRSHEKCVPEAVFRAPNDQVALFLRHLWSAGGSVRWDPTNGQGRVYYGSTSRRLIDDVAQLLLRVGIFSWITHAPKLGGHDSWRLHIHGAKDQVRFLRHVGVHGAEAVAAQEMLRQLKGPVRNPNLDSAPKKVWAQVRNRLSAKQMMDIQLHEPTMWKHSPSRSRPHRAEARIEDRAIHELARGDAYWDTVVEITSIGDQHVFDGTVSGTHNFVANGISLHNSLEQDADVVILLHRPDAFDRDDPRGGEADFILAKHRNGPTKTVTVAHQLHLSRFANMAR
# [12] = target: T3, Protein RecA (Mycobacterium tuberculosis, UniProt P9WHJ3); assay: Fluorescence Cell-Free Homogeneous Dose Retest to Identify Inhibitors of RecA-Intein Splicing Activity. [Related pubchem assays (depositor defined):AID2097, AID2223, AID489010, AID492950]; type: functional
# T3 sequence (P9WHJ3 whole entry): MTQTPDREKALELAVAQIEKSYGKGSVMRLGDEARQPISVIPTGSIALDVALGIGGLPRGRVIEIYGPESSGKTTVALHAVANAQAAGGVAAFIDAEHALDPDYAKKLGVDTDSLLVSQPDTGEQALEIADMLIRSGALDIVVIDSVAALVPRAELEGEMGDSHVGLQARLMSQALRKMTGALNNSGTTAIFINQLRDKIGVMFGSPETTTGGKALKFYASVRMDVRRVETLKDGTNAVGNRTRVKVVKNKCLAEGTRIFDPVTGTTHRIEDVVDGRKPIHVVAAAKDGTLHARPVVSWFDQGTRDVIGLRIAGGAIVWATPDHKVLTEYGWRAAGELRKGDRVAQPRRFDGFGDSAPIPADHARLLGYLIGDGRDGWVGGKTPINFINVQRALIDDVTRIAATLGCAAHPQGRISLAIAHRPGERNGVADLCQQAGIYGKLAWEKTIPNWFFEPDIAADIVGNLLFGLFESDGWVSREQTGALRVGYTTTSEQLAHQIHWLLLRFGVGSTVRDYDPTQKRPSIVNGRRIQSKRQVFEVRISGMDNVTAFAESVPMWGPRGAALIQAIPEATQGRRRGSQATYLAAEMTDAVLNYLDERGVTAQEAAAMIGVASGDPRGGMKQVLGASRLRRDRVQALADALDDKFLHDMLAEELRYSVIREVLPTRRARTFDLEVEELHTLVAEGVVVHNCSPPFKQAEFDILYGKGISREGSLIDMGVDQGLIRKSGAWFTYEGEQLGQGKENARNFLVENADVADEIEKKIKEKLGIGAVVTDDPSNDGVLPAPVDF
# [13] = test system: P388/ADR; assay: cells; type: functional; details: Mus musculus
# [14] = test system: SN12K1; assay: cells; type: functional; details: Homo sapiens
# [15] = test system: P388; assay: cells; type: functional; details: Mus musculus
# [16] = target: T4, Rac GTPase-activating protein 1 (Homo sapiens, UniProt Q9H0H5); assay: blockers of MgcRacGAP-driven Rac1 GTP hydrolysis – biochemical, ADP Hunter fluorescence, primary and confirmatory, confirmation (AID 624330); type: functional
# T4 sequence (Q9H0H5 whole entry): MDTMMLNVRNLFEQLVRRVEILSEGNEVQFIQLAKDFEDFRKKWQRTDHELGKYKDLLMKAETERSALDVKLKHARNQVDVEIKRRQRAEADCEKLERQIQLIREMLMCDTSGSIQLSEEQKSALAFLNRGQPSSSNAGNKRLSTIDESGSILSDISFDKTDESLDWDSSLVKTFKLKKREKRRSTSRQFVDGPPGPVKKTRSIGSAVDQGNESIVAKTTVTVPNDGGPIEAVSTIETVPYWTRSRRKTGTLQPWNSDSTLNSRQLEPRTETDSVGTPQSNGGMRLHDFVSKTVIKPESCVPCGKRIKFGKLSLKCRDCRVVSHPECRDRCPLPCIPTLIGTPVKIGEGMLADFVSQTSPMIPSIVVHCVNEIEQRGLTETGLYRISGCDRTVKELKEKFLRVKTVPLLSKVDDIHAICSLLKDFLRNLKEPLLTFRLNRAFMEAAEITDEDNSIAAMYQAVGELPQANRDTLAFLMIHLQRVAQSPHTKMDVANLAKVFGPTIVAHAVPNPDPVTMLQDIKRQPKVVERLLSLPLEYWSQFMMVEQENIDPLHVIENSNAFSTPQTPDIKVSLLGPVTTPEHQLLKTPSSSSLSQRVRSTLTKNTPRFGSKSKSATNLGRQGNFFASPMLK
# Chain of Genome polyprotein (P29990 2492-3391 limits assumed): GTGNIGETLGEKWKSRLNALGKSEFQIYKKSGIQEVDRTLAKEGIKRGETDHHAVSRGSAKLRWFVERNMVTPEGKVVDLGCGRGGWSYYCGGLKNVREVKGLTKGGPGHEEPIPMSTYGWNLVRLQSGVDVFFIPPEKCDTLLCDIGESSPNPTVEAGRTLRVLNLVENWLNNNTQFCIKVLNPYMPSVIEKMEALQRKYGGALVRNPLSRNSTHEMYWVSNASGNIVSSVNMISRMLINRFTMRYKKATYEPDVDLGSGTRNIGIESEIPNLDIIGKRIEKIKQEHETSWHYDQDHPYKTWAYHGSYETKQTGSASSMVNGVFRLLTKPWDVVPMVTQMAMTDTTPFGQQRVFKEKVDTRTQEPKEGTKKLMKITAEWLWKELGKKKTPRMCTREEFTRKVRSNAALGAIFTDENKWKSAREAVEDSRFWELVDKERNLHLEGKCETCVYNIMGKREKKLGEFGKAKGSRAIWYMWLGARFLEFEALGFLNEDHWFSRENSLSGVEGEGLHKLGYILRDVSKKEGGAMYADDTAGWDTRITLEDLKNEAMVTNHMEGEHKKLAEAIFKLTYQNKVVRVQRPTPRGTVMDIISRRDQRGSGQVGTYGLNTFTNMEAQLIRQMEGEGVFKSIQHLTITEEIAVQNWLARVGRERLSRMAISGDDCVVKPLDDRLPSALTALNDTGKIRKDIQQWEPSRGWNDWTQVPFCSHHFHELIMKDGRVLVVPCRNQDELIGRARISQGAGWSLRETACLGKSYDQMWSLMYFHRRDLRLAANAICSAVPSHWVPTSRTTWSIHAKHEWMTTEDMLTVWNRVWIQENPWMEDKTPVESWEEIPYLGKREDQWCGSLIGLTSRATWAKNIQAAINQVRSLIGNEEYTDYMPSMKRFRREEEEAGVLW
smiles,measurement,setting,value
O=C(O)c1ccccc1-c1ccccc1C(=O)Nc1ccc2c(c1)C(=O)c1ccccc1-2,IC50,[1],58.9 µM (active)
C[C@H](N)CN1CCc2ccc(Br)cc21,AC50,[2],0.84 µM (active)
COc1ccccc1-n1c(N)c(C(N)=O)sc1=S,IC50,[3],> 66 µM (inactive)
same,IC50,[4],> 66 µM (inactive)
COc1ccc(NC(=O)C(=O)NCCC2CCCCN2S(=O)(=O)c2ccccc2)cc1 (stereo not drawn),EC50,[5],22.8 µM (active)
same,EC50,[6],23.4 µM (active)
same,EC50,[7],13.5 µM (inconclusive)
same,EC50,[8],19.8 µM (active)
Nc1cccc(C(=O)Nc2ccc3[nH]c(-c4cccnc4)nc3c2)c1,AC50,[2],1.07 µM (active)
C[C@H](NS(=O)(=O)c1ccc2c(c1)OCCCO2)C(=O)N1CCN(c2ccc(F)cc2)CC1,IC50,[3],> 66 µM (inactive)
same,IC50,[4],> 66 µM (inactive)
CCN(CC)c1ccc(CNCCc2ccccc2F)cc1,AC50,[2],1.36 µM (active)
CCN(CC)S(=O)(=O)c1ccc(N2CCOCC2)c(NC(=O)CCC2CCCCC2)c1,IC50,[3],> 66 µM (inactive)
same,IC50,[4],> 66 µM (inactive)
Cc1cc([N+](=O)[O-])ccc1N1C(=O)c2ccc(C(=O)Nc3ccccc3C(=O)O)cc2C1=O,AC50,[2],57 µM (active)
same,IC50,[1],67.9 µM (active)
COc1ccccc1NS(=O)(=O)c1cc(NC(=O)Nc2cccc(C)c2)ccc1N1CCCCC1,IC50,[3],> 66 µM (inactive)
same,IC50,[4],> 66 µM (inactive)
same,EC50,[9],2.16 µM (active)
same,EC50,[10],> 60 µM (not active)
CC(=O)Nc1ccc(Nc2ccc3c4c(cc(=O)n3C)-c3ccccc3C(=O)c24)cc1,IC50,[3],> 66 µM (inactive)
same,IC50,[4],59.4 µM (inactive)
CC(=O)Oc1ccc(/C=C2/C(=O)N(c3ccccc3)N=C2C)cc1,AC50,[11],2.76 µM (active)
same,EC50,[12],2.72 µM (active)
same,IC50,[1],56 µM (active)
CCCn1cnc2cc(NCc3ccccc3O)ccc21,AC50,[2],3.92 µM (active)
CCn1c(-c2cc(Br)ccc2O)n[nH]c1=S,AC50,[2],4.27 µM (active)
C[C@@H]1CCC2[C@](C)(CO)[C@@H](O)CC[C@]2(C)[C@@]12CC[C@@](CO)(CC(=O)O)O2 (stereo partly drawn),IC50,[3],> 66 µM (inactive)
same,IC50,[4],> 66 µM (inactive)
C=CCn1c2ccccc2c2c(C)c3cnccc3c(C)c21,GI50,[13],11.2 µM (inactive)
same,GI50,[14],8.41 µM (inactive)
same,GI50,[15],3.34 µM (inactive)
COc1cc(/C=C(/C#N)C(N)=O)ccc1O,GI50,[13],> 100 µM (inactive)
same,GI50,[14],> 100 µM (inactive)
same,GI50,[15],> 100 µM (inactive)
C=CC12CN(C)C3C4COC(CC41)C1(C(=O)Nc4ccccc41)C32 (stereo not drawn),GI50,[13],136 µM (inactive)
same,GI50,[14],185 µM (inactive)
same,GI50,[15],63.1 µM (inactive)
CC1CCC2(C(=O)O)CCC3(C)C(=CCC4C5(C)CCC(O)C(C)(C)C5CCC43C)C2C1C (stereo not drawn),GI50,[13],2.1 µM (inactive)
same,GI50,[14],4.12 µM (inactive)
same,GI50,[15],2.27 µM (inactive)
c1cc(-c2ccoc2)n2ccnc2c1,IC50,[3],> 66 µM (inactive)
same,IC50,[4],> 66 µM (inactive)
N/C(=N\O)N/N=C\c1c(O)cc(O)cc1O,GI50,[13],17.5 µM (inactive)
same,GI50,[14],15.7 µM (inactive)
same,GI50,[15],> 44.4 µM (inactive)
CC1=C2C(O)C(C(C)C(=O)NCC(C)C)CCC2(C)C=CC1=O (stereo not drawn),GI50,[13],> 100 µM (inactive)
same,GI50,[14],> 100 µM (inactive)
same,GI50,[15],> 100 µM (inactive)
Cc1[nH]c(=O)[nH]c(=O)c1/C=C/C(=O)NC(CO)C[S+]([O-])Cc1ccccc1 (stereo not drawn),GI50,[13],> 300 µM (inactive)
same,GI50,[14],> 300 µM (inactive)
same,GI50,[15],> 179 µM (inactive)
O=C1c2ccccc2OCC1/C=N/O (stereo not drawn),GI50,[14],40.5 µM (inactive)
same,GI50,[15],18.9 µM (inactive)
COc1cc(-c2ccc(/N=N/c3ccc4c(S(=O)(=O)O)cc(S(=O)(=O)O)c(N)c4c3O)c(OC)c2)ccc1/N=N/c1ccc2c(S(=O)(=O)O)cc(S(=O)(=O)O)c(N)c2c1O,GI50,[13],> 100 µM (inactive)
same,GI50,[14],> 100 µM (inactive)
same,GI50,[15],> 100 µM (inactive)
CC1[C@@H]2CC=C3[C@H]4CCC5Cc6nc7c(nc6C[C@@]5(C)C4CC(=O)[C@]32CO[C@]12OC(C)(C)CC2O)CC1CC[C@@H]2C3=C[C@H]4O[C@@]5(O[C@@](C)(CO)C[C@@H]5O)C(C)[C@@]4(O)[C@]3(C)[C@@H](O)CC2[C@]1(C)C7 (stereo partly drawn),GI50,[13],0.00152 µM (active)
same,GI50,[14],0.000365 µM (active)
same,GI50,[15],0.000365 µM (active)
CC/C(C)=N/Nc1nc(-c2cc3cccc(OC)c3oc2=O)cs1,AC50,[2],0.091 µM (active)
COc1cc(/C=N/NC(=O)CCNC(=O)c2ccccc2Cl)ccc1O,AC50,[2],3.1 µM (active)
same,IC50,[16],29 µM (active)
